From publication PMC4178217, “Quinoline 3-sulfonamides inhibit lactate dehydrogenase A and reverse aerobic glycolysis in cancer cells” (Cancer & Metabolism, 2013)

Key:
recombinant human LDHA = recombinant human LDHA (Homo sapiens, UniProt P00338); experiment: recombinant human LDHA enzyme assay (lactate to pyruvate, NADH via diaphorase/resazurin)
recombinant human LDHB = recombinant human LDHB (Homo sapiens, UniProt P07195); experiment: recombinant human LDHB enzyme assay (lactate to pyruvate, NADH via diaphorase/resazurin)
recombinant human LDHB, sequence (P07195 whole entry): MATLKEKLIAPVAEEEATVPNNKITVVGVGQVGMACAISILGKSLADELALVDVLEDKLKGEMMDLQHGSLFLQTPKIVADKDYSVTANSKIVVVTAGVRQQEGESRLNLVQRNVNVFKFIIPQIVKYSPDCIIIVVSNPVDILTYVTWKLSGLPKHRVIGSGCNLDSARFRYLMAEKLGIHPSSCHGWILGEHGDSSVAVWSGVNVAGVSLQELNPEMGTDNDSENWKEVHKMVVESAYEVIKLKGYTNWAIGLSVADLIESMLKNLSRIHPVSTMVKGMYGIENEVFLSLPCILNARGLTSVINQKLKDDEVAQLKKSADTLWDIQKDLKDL

Snu398 cells [1] = experiment: Lactate production assay, Snu398 (RapidFire-MS)
Snu398 cells [2] = experiment: Compound cellular permeability assay, whole-cell extract; format: in vitro ADME, human; settings: Snu398 treated with 1 μM for 1.5 h
Method: Compound cellular permeability assays For cytosolic permeability assay, twelve million Snu398 cells were allowed to attach overnight and treated with DMSO control or 1 µM Compound 2 for 1.5 h in 1.7 mM glucose medium. The medium was removed, cells were washed in phosphate-buffered saline (PBS), and cytosolic extracts were prepared by solubilization in Qproteome lysis buffer (Qiagen, Valencia, CA). For whole-cell permeability assay, 75,000 Snu398 cells/well were plated in 96-well plates and treated with DMSO control or 1 µM compounds for 1.5h in low glucose medium. The medium was removed, cells were washed in PBS and solubilized in 50:50 mixture of methanol and acetonitrile. Compound concentration in the cytosolic or whole-cell extract was determined by LC/MS/MS analysis. An Acquity UPLC system (Waters Inc., Milford, MA) was coupled to an API 4000 or API 5000 triple-quad mass spectrometer (Applied Biosystems). […] Compound concentration in cells was determined by counting the number of cells in sample wells and assuming 3 pL/cell volume.

Compound	mode of LDHA inhibition (recombinant human LDHA)	IC50 (recombinant human LDHB)	EC50 (Snu398 cells [1]; Homo sapiens, SNU-398, read-out: lactate production EC50)	apparent intracellular concentration versus medium (Snu398 cells [2])	IC50 (recombinant human LDHA)	effect on cellular lactate production (Snu398 cells [1]; Snu398)
COc1cc2c(Nc3cccc(C(=O)O)c3)c(C(N)=O)cnc2cc1-c1c(C)noc1C	NADH-competitive LDHA inhibitor					
COc1ncc(-c2ccc3c(Nc4cc(Oc5ccc(F)cc5)cc(S(N)(=O)=O)c4)c(S(=O)(=O)NC4CC4)cnc3c2)c(OC)n1 [Compound 3]		0.055 ± 0.009 µM	3.3 ± 1.3 µM	higher apparent intracellular concentrations than that of the medium		
COc1ncc(-c2ccc3c(Nc4cc(Oc5ccc(F)cc5)cc(C(F)(F)F)c4)c(S(=O)(=O)NC4CC4)cnc3c2)c(OC)n1 [Compound 4]		> 50 µM			> 50 µM	does not affect cellular lactate
